Source: ChEMBL document CHEMBL3758163, “Extended structure-activity study of thienopyrimidine-based EGFR inhibitors with evaluation of drug-like properties” (Eur J Med Chem, 2016)

target: Macrophage colony-stimulating factor 1 receptor (Homo sapiens) (UniProt P07333); assay: Inhibition of CSF1R (unknown origin) at 500 nM

Row | SMILES | inhibition
1 | C#Cc1cccc(Nc2ncnc3sc(-c4ccc(CO)cc4OC)cc23)c1 | -1%
2 | C[C@@H](Nc1ncnc2sc(-c3ccccc3C(N)=O)cc12)c1ccccc1 | 3%

target: Epidermal growth factor receptor (Homo sapiens, UniProt P00533); assay: Inhibition of EGFR (unknown origin) by Z -LYTE assay
Sequence (P00533 whole entry): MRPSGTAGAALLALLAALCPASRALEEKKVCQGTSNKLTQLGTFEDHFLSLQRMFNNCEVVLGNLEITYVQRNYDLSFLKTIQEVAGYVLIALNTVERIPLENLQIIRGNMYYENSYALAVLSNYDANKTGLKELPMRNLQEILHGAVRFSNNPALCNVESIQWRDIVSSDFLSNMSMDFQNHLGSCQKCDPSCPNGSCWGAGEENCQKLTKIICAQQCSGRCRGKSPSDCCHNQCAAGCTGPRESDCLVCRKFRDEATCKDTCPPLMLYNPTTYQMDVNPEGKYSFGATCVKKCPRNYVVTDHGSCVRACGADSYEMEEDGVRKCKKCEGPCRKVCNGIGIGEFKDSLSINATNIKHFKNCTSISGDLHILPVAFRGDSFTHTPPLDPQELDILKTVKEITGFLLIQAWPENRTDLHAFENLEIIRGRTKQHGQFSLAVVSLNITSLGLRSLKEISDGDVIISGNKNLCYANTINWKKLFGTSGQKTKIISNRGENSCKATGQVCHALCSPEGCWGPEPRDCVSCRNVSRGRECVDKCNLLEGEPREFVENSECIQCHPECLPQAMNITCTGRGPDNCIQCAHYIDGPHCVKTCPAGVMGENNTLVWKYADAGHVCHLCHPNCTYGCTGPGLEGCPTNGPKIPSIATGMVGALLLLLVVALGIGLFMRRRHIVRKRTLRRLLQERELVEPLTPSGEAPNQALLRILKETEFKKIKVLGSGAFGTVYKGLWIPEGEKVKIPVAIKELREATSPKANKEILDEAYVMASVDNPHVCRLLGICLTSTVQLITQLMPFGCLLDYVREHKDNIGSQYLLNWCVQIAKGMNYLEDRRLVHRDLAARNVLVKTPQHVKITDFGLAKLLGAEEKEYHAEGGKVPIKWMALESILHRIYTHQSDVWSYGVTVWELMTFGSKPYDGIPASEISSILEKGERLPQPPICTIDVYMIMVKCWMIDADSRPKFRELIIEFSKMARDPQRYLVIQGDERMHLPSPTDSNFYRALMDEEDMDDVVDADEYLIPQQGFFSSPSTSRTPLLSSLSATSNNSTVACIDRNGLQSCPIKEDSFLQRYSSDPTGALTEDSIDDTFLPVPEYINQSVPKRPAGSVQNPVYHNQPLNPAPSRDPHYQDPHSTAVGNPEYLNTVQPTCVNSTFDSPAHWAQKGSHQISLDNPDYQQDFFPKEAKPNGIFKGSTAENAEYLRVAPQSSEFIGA

Row | SMILES | IC50
3 | C#Cc1cccc(Nc2ncnc3sc(-c4ccc(CO)cc4OC)cc23)c1 | 5 nM
4 | C[C@@H](Nc1ncnc2sc(-c3ccccc3C(N)=O)cc12)c1ccccc1 | 276 nM

target: MAP kinase-activated protein kinase 2 (Homo sapiens) (UniProt P49137); assay: Inhibition of MAPKAPK2 (unknown origin) at 500 nM

Row | SMILES | inhibition
5 | C[C@@H](Nc1ncnc2sc(-c3ccccc3C(N)=O)cc12)c1ccccc1 | -8%

target: Protein kinase C alpha type (Homo sapiens) (UniProt P17252); assay: Inhibition of PRKCA (unknown origin) at 500 nM

Row | SMILES | inhibition
6 | C#Cc1cccc(Nc2ncnc3sc(-c4ccc(CO)cc4OC)cc23)c1 | -7%
7 | C[C@@H](Nc1ncnc2sc(-c3ccccc3C(N)=O)cc12)c1ccccc1 | 8%

target: Mitogen-activated protein kinase 8 (Homo sapiens) (UniProt P45983); assay: Inhibition of MAPK8 (unknown origin) at 500 nM

Row | SMILES | inhibition
8 | C#Cc1cccc(Nc2ncnc3sc(-c4ccc(CO)cc4OC)cc23)c1 | 3%
9 | C[C@@H](Nc1ncnc2sc(-c3ccccc3C(N)=O)cc12)c1ccccc1 | 26%

target: Serine/threonine-protein kinase B-raf (Homo sapiens) (UniProt P15056); assay: Inhibition of BRAF (unknown origin) at 500 nM

Row | SMILES | inhibition
10 | C#Cc1cccc(Nc2ncnc3sc(-c4ccc(CO)cc4OC)cc23)c1 | 16%
11 | C[C@@H](Nc1ncnc2sc(-c3ccccc3C(N)=O)cc12)c1ccccc1 | 21%

target: Fibroblast growth factor receptor 1 (Homo sapiens) (UniProt P11362); assay: Inhibition of FGFR1 (unknown origin) at 500 nM

Row | SMILES | inhibition
12 | C#Cc1cccc(Nc2ncnc3sc(-c4ccc(CO)cc4OC)cc23)c1 | -6%
13 | C[C@@H](Nc1ncnc2sc(-c3ccccc3C(N)=O)cc12)c1ccccc1 | -6%

target: Focal adhesion kinase 1 (Homo sapiens) (UniProt Q05397); assay: Inhibition of PTK2 (unknown origin) at 500 nM

Row | SMILES | inhibition
14 | C#Cc1cccc(Nc2ncnc3sc(-c4ccc(CO)cc4OC)cc23)c1 | 0%
15 | C[C@@H](Nc1ncnc2sc(-c3ccccc3C(N)=O)cc12)c1ccccc1 | 5%

target: Tyrosine-protein kinase JAK2 (Homo sapiens) (UniProt O60674); assay: Inhibition of JAK2 (unknown origin) at 500 nM
Sequence (O60674 whole entry): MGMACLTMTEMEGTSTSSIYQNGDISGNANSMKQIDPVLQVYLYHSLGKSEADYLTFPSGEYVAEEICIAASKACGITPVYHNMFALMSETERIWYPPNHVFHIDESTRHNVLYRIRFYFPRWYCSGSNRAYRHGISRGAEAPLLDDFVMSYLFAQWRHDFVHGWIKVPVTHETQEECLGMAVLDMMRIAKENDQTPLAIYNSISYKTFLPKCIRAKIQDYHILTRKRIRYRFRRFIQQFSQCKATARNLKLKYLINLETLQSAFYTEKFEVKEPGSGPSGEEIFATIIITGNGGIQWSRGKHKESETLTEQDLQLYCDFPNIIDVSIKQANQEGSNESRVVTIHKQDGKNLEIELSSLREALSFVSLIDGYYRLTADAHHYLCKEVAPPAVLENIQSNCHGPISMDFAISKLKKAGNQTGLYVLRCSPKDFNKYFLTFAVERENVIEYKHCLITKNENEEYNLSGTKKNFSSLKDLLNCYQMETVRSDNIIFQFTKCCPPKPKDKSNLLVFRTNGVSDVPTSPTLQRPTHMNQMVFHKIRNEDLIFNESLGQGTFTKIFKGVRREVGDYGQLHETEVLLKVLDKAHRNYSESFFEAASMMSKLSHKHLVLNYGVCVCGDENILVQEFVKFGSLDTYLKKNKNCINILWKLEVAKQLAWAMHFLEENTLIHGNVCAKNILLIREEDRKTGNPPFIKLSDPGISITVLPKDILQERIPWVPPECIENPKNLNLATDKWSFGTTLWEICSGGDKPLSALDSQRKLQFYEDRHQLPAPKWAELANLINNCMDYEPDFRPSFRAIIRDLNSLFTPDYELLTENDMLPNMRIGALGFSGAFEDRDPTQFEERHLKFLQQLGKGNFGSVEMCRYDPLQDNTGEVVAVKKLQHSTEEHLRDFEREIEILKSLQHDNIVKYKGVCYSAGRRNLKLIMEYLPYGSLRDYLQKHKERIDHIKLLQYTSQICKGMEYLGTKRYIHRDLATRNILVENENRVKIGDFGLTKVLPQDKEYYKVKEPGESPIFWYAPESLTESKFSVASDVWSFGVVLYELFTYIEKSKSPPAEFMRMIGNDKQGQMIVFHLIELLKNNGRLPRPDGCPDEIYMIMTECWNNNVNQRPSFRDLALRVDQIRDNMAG

Row | SMILES | inhibition
16 | C#Cc1cccc(Nc2ncnc3sc(-c4ccc(CO)cc4OC)cc23)c1 | 6%
17 | C[C@@H](Nc1ncnc2sc(-c3ccccc3C(N)=O)cc12)c1ccccc1 | -8%

target: Proto-oncogene tyrosine-protein kinase receptor Ret (Homo sapiens) (UniProt P07949); assay: Inhibition of RET (unknown origin) at 500 nM

Row | SMILES | inhibition
18 | C#Cc1cccc(Nc2ncnc3sc(-c4ccc(CO)cc4OC)cc23)c1 | 0%
19 | C[C@@H](Nc1ncnc2sc(-c3ccccc3C(N)=O)cc12)c1ccccc1 | -5%

target: Proto-oncogene tyrosine-protein kinase Src (Homo sapiens) (UniProt P12931); assay: Inhibition of SRC (unknown origin) at 500 nM

Row | SMILES | inhibition
20 | C#Cc1cccc(Nc2ncnc3sc(-c4ccc(CO)cc4OC)cc23)c1 | 15%
21 | C[C@@H](Nc1ncnc2sc(-c3ccccc3C(N)=O)cc12)c1ccccc1 | 12%

target: Mitogen-activated protein kinase 1 (Homo sapiens) (UniProt P28482); assay: Inhibition of MAPK1 (unknown origin) at 500 nM

Row | SMILES | inhibition
22 | C#Cc1cccc(Nc2ncnc3sc(-c4ccc(CO)cc4OC)cc23)c1 | 1%
23 | C[C@@H](Nc1ncnc2sc(-c3ccccc3C(N)=O)cc12)c1ccccc1 | 9%

target: Protein kinase C beta type (Homo sapiens) (UniProt P05771); assay: Inhibition of PRKCB1 (unknown origin) at 500 nM

Row | SMILES | inhibition
24 | C#Cc1cccc(Nc2ncnc3sc(-c4ccc(CO)cc4OC)cc23)c1 | -2%
25 | C[C@@H](Nc1ncnc2sc(-c3ccccc3C(N)=O)cc12)c1ccccc1 | 3%

target: Tyrosine-protein kinase Yes (Homo sapiens) (UniProt P07947); assay: Inhibition of YES1 (unknown origin) at 500 nM

Row | SMILES | inhibition
26 | C#Cc1cccc(Nc2ncnc3sc(-c4ccc(CO)cc4OC)cc23)c1 | 8%
27 | C[C@@H](Nc1ncnc2sc(-c3ccccc3C(N)=O)cc12)c1ccccc1 | 10%

target: Platelet-derived growth factor receptor alpha (Homo sapiens) (UniProt P16234); assay: Inhibition of PDGFRA (unknown origin) at 500 nM
Sequence (P16234 whole entry): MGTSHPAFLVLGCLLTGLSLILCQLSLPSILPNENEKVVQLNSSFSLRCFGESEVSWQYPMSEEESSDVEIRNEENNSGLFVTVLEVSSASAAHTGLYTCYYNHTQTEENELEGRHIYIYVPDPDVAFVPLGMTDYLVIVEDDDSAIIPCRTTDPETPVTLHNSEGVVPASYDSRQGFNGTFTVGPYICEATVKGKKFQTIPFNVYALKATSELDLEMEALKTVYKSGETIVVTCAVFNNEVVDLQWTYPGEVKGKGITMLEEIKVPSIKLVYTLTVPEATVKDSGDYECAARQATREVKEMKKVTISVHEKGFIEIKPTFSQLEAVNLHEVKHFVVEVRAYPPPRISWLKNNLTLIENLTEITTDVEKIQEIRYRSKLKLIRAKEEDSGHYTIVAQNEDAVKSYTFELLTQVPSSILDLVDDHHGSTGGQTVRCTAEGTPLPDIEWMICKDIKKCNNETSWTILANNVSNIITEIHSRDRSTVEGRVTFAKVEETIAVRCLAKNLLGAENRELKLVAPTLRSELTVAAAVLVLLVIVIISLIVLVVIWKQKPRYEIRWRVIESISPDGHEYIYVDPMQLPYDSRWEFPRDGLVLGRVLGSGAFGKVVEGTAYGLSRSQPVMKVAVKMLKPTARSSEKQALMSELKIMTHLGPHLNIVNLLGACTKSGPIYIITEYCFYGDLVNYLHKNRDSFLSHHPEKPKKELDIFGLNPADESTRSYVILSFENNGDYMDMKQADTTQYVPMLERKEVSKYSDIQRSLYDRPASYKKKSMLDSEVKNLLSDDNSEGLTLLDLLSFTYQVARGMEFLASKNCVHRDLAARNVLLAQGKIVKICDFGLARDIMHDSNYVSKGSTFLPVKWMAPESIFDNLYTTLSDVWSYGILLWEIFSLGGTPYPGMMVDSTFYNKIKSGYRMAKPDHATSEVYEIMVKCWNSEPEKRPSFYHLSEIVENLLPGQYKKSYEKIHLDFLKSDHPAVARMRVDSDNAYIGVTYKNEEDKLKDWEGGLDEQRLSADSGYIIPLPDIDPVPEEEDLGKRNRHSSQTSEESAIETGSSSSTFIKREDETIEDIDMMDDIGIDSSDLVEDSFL

Row | SMILES | inhibition
28 | C#Cc1cccc(Nc2ncnc3sc(-c4ccc(CO)cc4OC)cc23)c1 | -9%
29 | C[C@@H](Nc1ncnc2sc(-c3ccccc3C(N)=O)cc12)c1ccccc1 | -7%

target: Serine/threonine-protein kinase PLK1 (Homo sapiens) (UniProt P53350); assay: Inhibition of PLK1 (unknown origin) at 500 nM

Row | SMILES | inhibition
30 | C#Cc1cccc(Nc2ncnc3sc(-c4ccc(CO)cc4OC)cc23)c1 | -8%
31 | C[C@@H](Nc1ncnc2sc(-c3ccccc3C(N)=O)cc12)c1ccccc1 | -3%

target: Tyrosine-protein kinase Fer (Homo sapiens) (UniProt P16591); assay: Inhibition of FER (unknown origin) at 500 nM

Row | SMILES | inhibition
32 | C#Cc1cccc(Nc2ncnc3sc(-c4ccc(CO)cc4OC)cc23)c1 | -2%
33 | C[C@@H](Nc1ncnc2sc(-c3ccccc3C(N)=O)cc12)c1ccccc1 | -4%

target: Insulin-like growth factor 1 receptor (Homo sapiens) (UniProt P08069); assay: Inhibition of IGF1R (unknown origin) at 500 nM
Sequence (P08069 31-736 limits assumed): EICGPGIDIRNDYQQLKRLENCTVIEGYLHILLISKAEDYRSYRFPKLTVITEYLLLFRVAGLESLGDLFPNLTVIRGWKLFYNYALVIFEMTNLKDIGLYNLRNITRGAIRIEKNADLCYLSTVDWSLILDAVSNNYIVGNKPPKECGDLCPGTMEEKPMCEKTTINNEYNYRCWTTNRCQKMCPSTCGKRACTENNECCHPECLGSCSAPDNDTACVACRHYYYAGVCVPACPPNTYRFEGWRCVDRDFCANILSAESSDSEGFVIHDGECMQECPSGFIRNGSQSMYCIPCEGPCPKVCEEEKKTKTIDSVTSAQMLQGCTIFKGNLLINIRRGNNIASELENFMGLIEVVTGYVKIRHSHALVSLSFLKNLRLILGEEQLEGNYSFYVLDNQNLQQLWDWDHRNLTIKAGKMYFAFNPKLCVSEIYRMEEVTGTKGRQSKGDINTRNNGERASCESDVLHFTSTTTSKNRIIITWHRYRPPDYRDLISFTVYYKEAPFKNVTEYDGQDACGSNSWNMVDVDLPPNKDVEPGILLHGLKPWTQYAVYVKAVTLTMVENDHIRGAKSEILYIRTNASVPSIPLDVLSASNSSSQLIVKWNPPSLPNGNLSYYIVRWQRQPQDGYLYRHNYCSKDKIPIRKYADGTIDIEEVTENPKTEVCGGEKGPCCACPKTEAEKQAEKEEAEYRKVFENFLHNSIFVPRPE
Sequence (P08069 741-1367 limits assumed): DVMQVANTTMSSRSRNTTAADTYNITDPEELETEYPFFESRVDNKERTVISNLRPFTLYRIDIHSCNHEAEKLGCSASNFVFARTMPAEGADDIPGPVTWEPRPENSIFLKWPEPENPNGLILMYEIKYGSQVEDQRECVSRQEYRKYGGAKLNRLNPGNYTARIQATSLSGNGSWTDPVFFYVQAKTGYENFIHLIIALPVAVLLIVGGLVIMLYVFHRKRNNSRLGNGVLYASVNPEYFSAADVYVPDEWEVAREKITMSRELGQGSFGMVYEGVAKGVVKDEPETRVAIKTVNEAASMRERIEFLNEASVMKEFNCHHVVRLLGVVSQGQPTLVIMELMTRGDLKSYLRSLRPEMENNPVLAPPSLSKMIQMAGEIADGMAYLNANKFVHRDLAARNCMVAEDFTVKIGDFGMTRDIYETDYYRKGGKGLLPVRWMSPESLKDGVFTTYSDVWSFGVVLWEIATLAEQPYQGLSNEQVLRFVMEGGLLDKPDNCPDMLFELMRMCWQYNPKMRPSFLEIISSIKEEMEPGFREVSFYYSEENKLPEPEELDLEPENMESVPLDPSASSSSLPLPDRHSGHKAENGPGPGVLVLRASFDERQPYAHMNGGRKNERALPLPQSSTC

Row | SMILES | inhibition
34 | C#Cc1cccc(Nc2ncnc3sc(-c4ccc(CO)cc4OC)cc23)c1 | -8%
35 | C[C@@H](Nc1ncnc2sc(-c3ccccc3C(N)=O)cc12)c1ccccc1 | -6%

target: Serine/threonine-protein kinase pim-2 (Homo sapiens) (UniProt Q9P1W9); assay: Inhibition of PIM2 (unknown origin) at 500 nM
Sequence (Q9P1W9 whole entry, looked up): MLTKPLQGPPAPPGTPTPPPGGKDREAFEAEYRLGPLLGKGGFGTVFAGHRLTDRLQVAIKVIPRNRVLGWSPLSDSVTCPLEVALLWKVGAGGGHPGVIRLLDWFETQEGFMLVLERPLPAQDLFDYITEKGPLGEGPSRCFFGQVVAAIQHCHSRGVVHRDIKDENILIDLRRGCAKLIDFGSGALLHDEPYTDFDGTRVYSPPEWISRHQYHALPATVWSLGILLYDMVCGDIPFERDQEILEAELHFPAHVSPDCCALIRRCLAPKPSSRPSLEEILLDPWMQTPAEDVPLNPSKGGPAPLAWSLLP

Row | SMILES | inhibition
36 | C#Cc1cccc(Nc2ncnc3sc(-c4ccc(CO)cc4OC)cc23)c1 | 11%
37 | C[C@@H](Nc1ncnc2sc(-c3ccccc3C(N)=O)cc12)c1ccccc1 | 0%

target: Tyrosine-protein kinase Fgr (Homo sapiens) (UniProt P09769); assay: Inhibition of FGR (unknown origin) at 500 nM

Row | SMILES | inhibition
38 | C#Cc1cccc(Nc2ncnc3sc(-c4ccc(CO)cc4OC)cc23)c1 | 11%
39 | C[C@@H](Nc1ncnc2sc(-c3ccccc3C(N)=O)cc12)c1ccccc1 | 2%

target: T1, Serine/threonine-protein kinase Chk1 (Homo sapiens) (UniProt O14757); assay: Inhibition of CHEK1 (unknown origin) at 500 nM
T1 sequence (whole entry): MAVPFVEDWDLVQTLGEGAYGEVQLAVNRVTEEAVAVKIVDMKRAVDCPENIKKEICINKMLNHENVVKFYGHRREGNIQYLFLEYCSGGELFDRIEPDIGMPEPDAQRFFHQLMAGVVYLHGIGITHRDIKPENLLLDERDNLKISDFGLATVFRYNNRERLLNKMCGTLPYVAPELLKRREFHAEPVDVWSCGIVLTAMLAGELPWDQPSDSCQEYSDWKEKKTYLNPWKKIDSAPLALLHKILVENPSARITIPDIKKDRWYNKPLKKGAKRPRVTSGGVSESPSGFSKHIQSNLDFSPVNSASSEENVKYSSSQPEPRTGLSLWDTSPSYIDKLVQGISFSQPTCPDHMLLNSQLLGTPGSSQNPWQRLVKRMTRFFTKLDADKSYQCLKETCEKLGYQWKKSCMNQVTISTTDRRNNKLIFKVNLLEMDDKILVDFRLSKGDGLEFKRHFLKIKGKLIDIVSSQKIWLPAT

Row | SMILES | inhibition
40 | C#Cc1cccc(Nc2ncnc3sc(-c4ccc(CO)cc4OC)cc23)c1 | -3%
41 | C[C@@H](Nc1ncnc2sc(-c3ccccc3C(N)=O)cc12)c1ccccc1 | -4%

target: Tyrosine-protein kinase ABL1 (Homo sapiens) (UniProt P00519); assay: Inhibition of ABL1 (unknown origin) at 500 nM

Row | SMILES | inhibition
42 | C#Cc1cccc(Nc2ncnc3sc(-c4ccc(CO)cc4OC)cc23)c1 | -3%
43 | C[C@@H](Nc1ncnc2sc(-c3ccccc3C(N)=O)cc12)c1ccccc1 | -5%

target: Aurora kinase B (Homo sapiens) (UniProt Q96GD4); assay: Inhibition of AURKB (unknown origin) at 500 nM

Row | SMILES | inhibition
44 | C#Cc1cccc(Nc2ncnc3sc(-c4ccc(CO)cc4OC)cc23)c1 | 21%
45 | C[C@@H](Nc1ncnc2sc(-c3ccccc3C(N)=O)cc12)c1ccccc1 | 2%

target: Vascular endothelial growth factor receptor 1 (Homo sapiens) (UniProt P17948); assay: Inhibition of FLT1 (unknown origin) at 500 nM

Row | SMILES | inhibition
46 | C#Cc1cccc(Nc2ncnc3sc(-c4ccc(CO)cc4OC)cc23)c1 | -7%
47 | C[C@@H](Nc1ncnc2sc(-c3ccccc3C(N)=O)cc12)c1ccccc1 | 4%

target: Tyrosine-protein kinase CSK (Homo sapiens) (UniProt P41240); assay: Inhibition of CSK (unknown origin) at 500 nM

Row | SMILES | inhibition
48 | C#Cc1cccc(Nc2ncnc3sc(-c4ccc(CO)cc4OC)cc23)c1 | 8%
49 | C[C@@H](Nc1ncnc2sc(-c3ccccc3C(N)=O)cc12)c1ccccc1 | 12%
